Paper PMC7595966, “Scutellarin is Highly Likely to be Responsible for Drug-Drug Interactions Mediated by Hepatic Organic Anion-Transporting Polypeptide1B3” (Pharmaceutical Research, 2020)

Tests used:
hOATP1B3 = biological target: T1, hOATP1B3 (Homo sapiens, UniProt Q9NPD5); test: cell-based
T1 construct: gene SLCO1B3
T1 sequence (Q9NPD5 1-702): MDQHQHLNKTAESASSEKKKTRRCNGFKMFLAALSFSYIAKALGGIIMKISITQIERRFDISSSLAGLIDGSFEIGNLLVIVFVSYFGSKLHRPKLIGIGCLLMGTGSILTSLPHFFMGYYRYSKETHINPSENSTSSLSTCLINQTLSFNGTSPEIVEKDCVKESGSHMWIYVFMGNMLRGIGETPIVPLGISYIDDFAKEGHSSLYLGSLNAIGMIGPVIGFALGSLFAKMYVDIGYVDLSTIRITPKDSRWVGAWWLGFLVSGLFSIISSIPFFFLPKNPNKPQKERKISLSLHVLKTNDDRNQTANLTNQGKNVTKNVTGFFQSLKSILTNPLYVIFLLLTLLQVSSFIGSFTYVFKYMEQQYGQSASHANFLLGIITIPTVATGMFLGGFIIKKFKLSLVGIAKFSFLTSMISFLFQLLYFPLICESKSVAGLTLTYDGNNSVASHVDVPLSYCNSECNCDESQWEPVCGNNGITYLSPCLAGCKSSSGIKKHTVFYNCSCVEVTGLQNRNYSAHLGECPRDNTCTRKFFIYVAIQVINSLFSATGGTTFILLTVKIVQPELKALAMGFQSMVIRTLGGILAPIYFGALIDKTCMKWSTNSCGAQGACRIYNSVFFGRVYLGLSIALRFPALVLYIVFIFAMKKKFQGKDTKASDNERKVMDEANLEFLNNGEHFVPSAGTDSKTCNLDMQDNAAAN

rOATP1B2 = biological target: T2, rOATP1B2 (Rattus norvegicus, UniProt Q9QZX8); test: cell-based
T2 construct: gene Slco1b2
T2 sequence (Q9QZX8 1-687): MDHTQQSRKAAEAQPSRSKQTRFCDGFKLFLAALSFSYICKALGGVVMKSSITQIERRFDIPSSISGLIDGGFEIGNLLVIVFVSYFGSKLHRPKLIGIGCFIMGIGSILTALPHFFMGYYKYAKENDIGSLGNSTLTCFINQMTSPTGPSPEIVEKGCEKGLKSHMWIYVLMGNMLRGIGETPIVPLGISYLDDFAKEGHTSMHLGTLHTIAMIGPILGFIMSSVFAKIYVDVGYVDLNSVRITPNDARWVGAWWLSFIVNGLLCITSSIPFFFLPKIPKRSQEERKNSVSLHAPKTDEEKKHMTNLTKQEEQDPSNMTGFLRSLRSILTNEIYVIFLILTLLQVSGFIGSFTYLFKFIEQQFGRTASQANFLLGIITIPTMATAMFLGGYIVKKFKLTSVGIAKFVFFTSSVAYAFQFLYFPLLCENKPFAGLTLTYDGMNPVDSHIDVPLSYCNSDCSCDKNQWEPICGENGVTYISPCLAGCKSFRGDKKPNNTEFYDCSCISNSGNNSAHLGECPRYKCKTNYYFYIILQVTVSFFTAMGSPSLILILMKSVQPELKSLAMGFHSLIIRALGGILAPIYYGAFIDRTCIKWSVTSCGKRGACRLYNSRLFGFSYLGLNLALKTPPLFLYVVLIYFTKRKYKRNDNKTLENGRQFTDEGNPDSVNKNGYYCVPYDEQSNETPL

`O=C(O)[C@H]1O[C@@H](Oc2cc3oc(-c4ccc(O)cc4)cc(=O)c3c(O)c2O)[C@H](O)[C@@H](O)[C@@H]1O` [Scutellarin] showed an IC50 (hOATP1B3) of 45.5 ± 6.67 µM and an IC50 (rOATP1B2) of 27.6 ± 3.97 µM.
